In paper PMC3174198, “Virtual High-Throughput Screening Identifies Mycophenolic Acid as a Novel RNA Capping Inhibitor” (PLoS ONE, 2011):
pIC50: −log10 of the molar value.

Assays:
[1] = target: T1, RNA guanylyltransferase (Saccharomyces cerevisiae, UniProt Q01159); test: Substrate test: capillary electrophoresis of enzyme adduct and TLC of RNA capping products; format: biochemical, S. cerevisiae; details: 1 mM MPA
T1 construct: made in house
T1 sequence (Q01159 1-459): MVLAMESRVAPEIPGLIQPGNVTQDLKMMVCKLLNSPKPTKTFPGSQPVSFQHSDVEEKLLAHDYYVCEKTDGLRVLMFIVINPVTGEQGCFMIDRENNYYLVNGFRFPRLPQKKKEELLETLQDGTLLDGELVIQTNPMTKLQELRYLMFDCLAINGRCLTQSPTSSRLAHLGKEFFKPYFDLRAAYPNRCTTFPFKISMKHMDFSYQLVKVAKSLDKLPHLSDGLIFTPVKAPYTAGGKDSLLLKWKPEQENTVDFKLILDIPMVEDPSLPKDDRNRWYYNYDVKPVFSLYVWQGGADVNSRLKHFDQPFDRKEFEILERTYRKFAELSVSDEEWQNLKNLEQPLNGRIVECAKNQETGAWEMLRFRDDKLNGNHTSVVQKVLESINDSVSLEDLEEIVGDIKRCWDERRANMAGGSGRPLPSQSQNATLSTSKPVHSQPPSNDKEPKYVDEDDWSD
Excerpt: In the typical GTase reaction, the nucleophilic attack on the α-phosphate of GTP by the enzyme during the first step of the reaction results in the formation of a covalent intermediate in which GMP is linked via a phosphoamide bond to a lysine residue of the enzyme. […] Although MPA is not a nucleoside analog per se, we were still interested to monitor its ability to potentially be used as a substrate by the enzyme. The appearance of a slower migrating protein species is traditionally observed upon electrophoresis through a polyacrylamide gel when an RNA capping enzyme is incubated with GTP [25]. This slower migrating species corresponds to the enzyme with covalently bound GMP. We therefore incubated the enzyme in the presence of GTP or MPA and the polypeptide was analyzed by capillary electrophoresis. […] Aliquots of the RNA samples were then digested with nuclease P1 and alkaline phosphatase and analyzed by polyethyleneimine-cellulose thin layer chromatography (Fig. 3B).
(A) Capillary electrophoresis analysis of the RNA capping reaction. The GTase reactions were performed in the presence of the purified enzyme (1 µM) and GTP (1 mM) or MPA (1 mM), and the reaction products were analyzed by capillary electrophoresis. […] The reaction products were analyzed by thin layer chromatography on a polyethyleneimine-cellulose plate developed with 0.5 M LiCl and 1 M formic acid. […]

[2] = target: T2, GTase of S. cerevisiae (Ceg1 protein) (Saccharomyces cerevisiae, UniProt Q01159); test: Complete RNA guanylyltransferase reaction (both steps), standard GTase assay; format: biochemical
T2 construct: made in house
T2 sequence (Q01159 1-459): T1 sequence (Q01159 1-459)

[3] = target: T2, GTase of S. cerevisiae (Ceg1 protein); test: Second step of GTase reaction: transfer of GMP onto acceptor RNA; format: biochemical; details: enzyme pre-incubated with GTP, then acceptor 5'-diphosphate RNA added with MPA
Experimental: (§1) Figure 2 Mycophenolic acid inhibits the RNA guanylyltransferase activity. (A) Molecular structure of mycophenolic acid (MPA). (B) Increasing concentrations of MPA inhibit the complete RNA guanylyltransferase reaction. […] The reaction products were analyzed on a denaturing polyacrylamide gel and quantified (right side of the panel). (C) MPA is not a potent inhibitor of the first step of the GTase reaction. […] (D) The second step of the GTase reaction is inhibited by MPA. […] Formation of the radiolabeled capped GpppRNA was monitored following electrophoresis on a denaturant polyacrylamide gel.

[4] = target: T2, GTase of S. cerevisiae (Ceg1 protein); test: First step of GTase reaction: enzyme-GMP covalent complex formation; format: biochemical
Experimental: The assay was performed by incubating the enzyme (0.1 µM) with 10 µM [α-^32P]GTP in a buffer containing 50 mM Tris-HCl, pH 8, 5 mM DTT, and 5 mM MgCl2 for 5 min at 30°C. […] The reactions were analyzed by electrophoresis through a 12.5% polyacrylamide gel containing 0.1% SDS. The radiolabeled proteins were visualized by autoradiography of the gel.
as §1

[5] = target: T3, human RNA guanylyltransferase (HCE) (Homo sapiens, UniProt O60942); test: First and second step of the GTase reaction, human enzyme; format: biochemical; details: enzyme-GMP formation
T3 construct: made in house
T3 sequence (O60942 whole entry): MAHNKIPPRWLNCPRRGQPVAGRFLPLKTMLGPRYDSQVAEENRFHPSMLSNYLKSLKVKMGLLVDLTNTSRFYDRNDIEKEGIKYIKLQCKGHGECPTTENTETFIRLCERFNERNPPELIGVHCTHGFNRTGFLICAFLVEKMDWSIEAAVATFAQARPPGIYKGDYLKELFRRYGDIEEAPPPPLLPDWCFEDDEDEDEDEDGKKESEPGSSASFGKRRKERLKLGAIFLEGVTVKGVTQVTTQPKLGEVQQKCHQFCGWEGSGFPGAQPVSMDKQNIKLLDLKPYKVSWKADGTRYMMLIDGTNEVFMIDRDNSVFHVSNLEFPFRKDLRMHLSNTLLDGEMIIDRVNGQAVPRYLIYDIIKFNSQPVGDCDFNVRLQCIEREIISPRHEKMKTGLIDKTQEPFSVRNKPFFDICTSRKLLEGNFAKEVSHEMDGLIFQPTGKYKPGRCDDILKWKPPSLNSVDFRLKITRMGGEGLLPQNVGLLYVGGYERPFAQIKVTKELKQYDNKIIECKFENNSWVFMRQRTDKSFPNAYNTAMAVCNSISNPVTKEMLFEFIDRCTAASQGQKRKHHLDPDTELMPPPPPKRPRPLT

[6] = target: T4, Chlorella virus DNA ligase (Paramecium bursaria Chlorella virus 1, UniProt O41026); test: Ligation assay: strand joining of nicked DNA duplex (complete reaction)
T4 sequence (O41026 entry or part of it): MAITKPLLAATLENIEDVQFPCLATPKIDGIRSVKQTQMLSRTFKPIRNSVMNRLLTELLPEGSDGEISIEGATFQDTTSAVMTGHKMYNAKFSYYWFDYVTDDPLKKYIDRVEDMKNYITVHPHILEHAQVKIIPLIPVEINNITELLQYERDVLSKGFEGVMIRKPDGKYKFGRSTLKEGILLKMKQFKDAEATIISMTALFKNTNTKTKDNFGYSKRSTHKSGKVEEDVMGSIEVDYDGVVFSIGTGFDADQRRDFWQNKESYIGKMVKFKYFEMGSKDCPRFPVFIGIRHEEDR

[7] = target: T4, Chlorella virus DNA ligase; test: Second step of ligation: AMP transfer to 5'-phosphate DNA (1-nt gapped substrate); format: biochemical; details: enzyme pre-incubated with ATP; 1-nt gapped DNA substrate
Excerpt: (§2) An autoradiogram of the gel is shown.

[8] = target: T5, yeast GTase enzyme-GMP complex (Saccharomyces cerevisiae, UniProt Q01159); test: UV-crosslinking of radiolabelled RNA to the enzyme-GMP complex; design: species or system S. cerevisiae; details: 81 nt 5'-triphosphate radiolabelled RNA (3 µM), read-out: IC50 for inhibition of RNA binding to the enzyme-GMP complex
T5 construct: made in house
Experimental: UV-crosslinking between the internally ^32P-labeled RNA of 81 nt and the yeast GTase was performed in a crosslink buffer (50 mM Tris pH 7.5, 5 mM DTT, 5 mM MgCl2). The protein (12 µM) was incubated with GTP (1 mM) and different concentrations of MPA for 10 minutes at 30°C. The radiolabeled RNA (3 µM) was added to the reaction mixture and incubated for 5 minutes at 30°C. The reaction mixture was exposed to UV light (254 nm, 20 Joules/cm^2) for 5 min at 30°C using a Stratalinker 2400 UV Crosslinker (Stratagene). The crosslink mixture was denatured (50 mM Tris-HCl, pH 7.0, 5% sucrose, 5% b-mercaptoethanol, 2% SDS) and separated by electrophoresis on a 12% SDS-PAGE. The gel was analyzed by phosphorimaging.
It is tempting to speculate that the opening of the active site of the enzyme that is normally observed following the hydrolysis of GTP to produce the enzyme-GMP covalent intermediate is inhibited by MPA. Following the formation of the GMP adduct, the enzyme must open up to provide access for the incoming mRNA substrate, since this site is blocked off in the closed form of the enzyme. […] In order to validate this hypothesis, cross-linking assays were used to monitor the binding of radiolabelled RNA to the enzyme-GMP complex with or without MPA. […]
Figure 5 Binding of MPA to the enzyme-GMP complex inhibits the interaction with RNA. […] (B) The reaction products were quantified by phosphorimaging.

[9] = target: T6, RNA guanylyltransferase from Chlorella virus (A103R) (Paramecium bursaria Chlorella virus 1, UniProt Q84424); test: First and second step of the GTase reaction, Chlorella enzyme; format: biochemical
T6 construct: made in house
T6 sequence (Q84424 whole entry, stated change not applied): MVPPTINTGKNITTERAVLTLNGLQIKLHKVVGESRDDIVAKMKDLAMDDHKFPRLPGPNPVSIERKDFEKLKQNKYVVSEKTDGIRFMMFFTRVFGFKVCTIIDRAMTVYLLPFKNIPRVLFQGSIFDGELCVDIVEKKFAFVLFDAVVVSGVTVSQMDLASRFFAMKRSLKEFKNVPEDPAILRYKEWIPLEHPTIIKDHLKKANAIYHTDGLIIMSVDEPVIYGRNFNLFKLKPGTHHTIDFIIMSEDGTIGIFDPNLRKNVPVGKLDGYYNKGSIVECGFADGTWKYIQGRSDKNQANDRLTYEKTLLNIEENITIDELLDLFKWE

[10] = target: T4, Chlorella virus DNA ligase; test: First step of ligation: enzyme-AMP covalent complex formation; format: biochemical
Excerpt: as §2

[11] = test system: S. cerevisiae cells; test: Primer extension analysis of SSA1 mRNA 5' ends (RNA cap formation in cells); format: cell-based; details: 500 µg/ml MPA for 3 h
[12] = target: T7, RNA guanylyltransferase from vaccinia virus (D1R) (Vaccinia virus, UniProt P04298); test: biochemical
T7 construct: made in house

With `COc1c(C)c2c(c(O)c1C/C=C(\C)CCC(=O)O)C(=O)OC2` [MPA, mycophenolic acid] the “use as substrate by the GTase (slower migrating covalent enzyme species)” value ([1]; capillary electrophoresis) was “not a substrate”, the “transfer to an acceptor RNA” value ([1]; nuclease P1 + alkaline phosphatase digestion, TLC) was “could not be detected” and the pIC50 [2] was 3.44. The inhibition at 900 µM ([2]; at 900 µM MPA, both steps, read-out: inhibition of the overall GTase activity) was 80%, the pIC50 [3] was 3.19 and the pIC50 [4] was 2.52. The “concentration for first step relative to amount required to inhibit the overall GTase reaction” value ([4]; first step IC50 / overall (both steps) IC50) was 8 times, the pIC50 [5] was ~2.52 and the pIC50 [6] was 3.15. It also gave a pIC50 [7] of 3.22, a pIC50 [8] of 3.39 and a pIC50 [9] of ~2.52. For the same compound, the pIC50 ([10]; enzyme-AMP covalent complex formation) was ~2.52, the “concentration for first step relative to amount required to inhibit the overall reaction” value ([10]; first step IC50 / overall ligation IC50) was 4 times and the “reduction of cap formation” value [11] was 50%. It also gave a pIC50 [12] of ~2.52.
